Data on two molecules can be found in US12286440B2, “Penam derivative or salt thereof, pharmaceutical composition, and applications thereof” (priority 2018, dated 2025).

Common to all, as to assay: Antibacterial activity evaluation test, MIC by CLSI broth microdilution
What all share (format): cell-based
Holding throughout (conditions): cation-adjusted Mueller Hinton medium, 35° C., 16 to 20 hours

Experiment [1] deals with VIM-2-containing Pseudomonas aeruginosa strain (S-3779). The protocol: (§1) The minimum inhibitory concentration (MIC) was measured according to the Clinical and Laboratory Standards Institute (CLSI) standard method by using the following broth microdilution method.
(§2) As bacteria, a Pseudomonas aeruginosa strain ATCC27853, an AmpC-derepressed Pseudomonas aeruginosa mutant strain (S-3028), an IMP-1-containing Pseudomonas aeruginosa strain (S-2838), a VIM-2-containing Pseudomonas aeruginosa strain (S-3779), a GES-19 and GES-20-containing Pseudomonas aeruginosa strain (S-3759), a CTX-M-15-containing Escherichia coli strain (TK-1747), a KPC-2-containing Klebsiella pneumoniae strain (Y-995), an OXA-48-containing Klebsiella pneumoniae strain (Y-1062), and an NDM-1-containing Klebsiella pneumoniae strain (Y-1007) were used. The test bacterial cells that had been cultured overnight on a Mueller Hinton agar medium were scraped off, suspended at a density equivalent to 0.5 McFarland standard, and diluted 10-fold, thereby obtaining an inoculum. A cation-adjusted Mueller Hinton medium containing a test compound was inoculated with 0.005 mL of the inoculum, and the cells were cultured at 35° C. for 16 to 20 hours. The minimum drug concentration at which the growth of bacteria was not visually observed was defined as MIC […].
(§3) An antibacterial activity evaluation test was performed in the same manner as in Test Example 1.

In experiment [2] the test system is NDM-1-containing Klebsiella pneumoniae strain (Y-1007). The protocol:
as §1, §2, §3

The test system of experiment [3] is GES-19 and GES-20-containing Pseudomonas aeruginosa strain (S-3759). The protocol:
as §1, §2, §3

Experiment [4] concerns IMP-1-containing Pseudomonas aeruginosa strain (S-2838). As to the method:
as §1, §2, §3

For experiment [5], the system named is KPC-2-containing Klebsiella pneumoniae strain (Y-995). The protocol: as §1, §2, §3
The subject of experiment [6] is Pseudomonas aeruginosa strain ATCC27853. As to the method: as §1, §2, §3
Experiment [7] relates to OXA-48-containing Klebsiella pneumoniae strain (Y-1062). As to the method: as §1, §2, §3
Experiment [8] concerns CTX-M-15-containing Escherichia coli strain (TK-1747). The protocol: as §1, §2, §3
For experiment [9], the system named is AmpC-derepressed Pseudomonas aeruginosa mutant strain (S-3028). As to the method:
as §1, §2, §3

In brackets after ≈: the same amount, converted by molar mass. Where only a bound is given, the exact number is not on record here.

Molecule `Nc1nc(/C(=N/OC2(C(=O)O)CCC2)C(=O)N[C@@H]2C(=O)N3C[C@@](C(=O)O)(N4CCN(NC(=O)C(=O)c5ccc(O)c(O)c5Cl)C4=O)S[C@H]23)cs1` [Example 19, (3R,5R,6R)-6-((Z)-2-(2-aminothiazol-4-yl)-2-((1-carboxycyclobutoxy)imino)acetamido)-3-(3-(2-(2-chloro-3,4-dihydroxyphenyl)-2-oxoacetamido)-2-oxoimidazolidin-1-yl)-7-oxo-4-thia-1-azabicyclo[3.2.0]heptane-3-carboxylate] gave an MIC, Pseudomonas aeruginosa S-3779 in experiment [1] of 0.25 µg/mL (≈ 0.332 µM). Besides, the MIC, Klebsiella pneumoniae Y-1007 in experiment [2] was less than 0.06 µg/mL. In [3], this molecule displayed an MIC, Pseudomonas aeruginosa S3759 of 0.25 µg/mL (≈ 0.332 µM). This molecule yielded an MIC, Pseudomonas aeruginosa S-2838 in experiment [4] of 0.25 µg/mL (≈ 0.332 µM). Moreover, in experiment [5], the MIC, Klebsiella pneumoniae Y-995 stood at 0.25 µg/mL (≈ 0.332 µM). The MIC, Pseudomonas aeruginosa ATCC 27853 in experiment [6] was 0.25 µg/mL (≈ 0.332 µM). The MIC, Klebsiella pneumoniae Y-1062 in experiment [7] turned out to be 0.12 µg/mL (≈ 0.159 µM). The MIC, Escherichia coli TK-1747 in experiment [8] was 0.5 µg/mL (≈ 0.664 µM). Besides, the MIC, Pseudomonas aeruginosa S-3028 in experiment [9] was 2 µg/mL (≈ 2.66 µM).
In [1], `CC(C)(O/N=C(\C(=O)N[C@@H]1C(=O)N2C[C@@](C(=O)O)(N3CCN(NC(=O)C(=O)NCCNC(=O)c4ccc(O)c(O)c4Cl)C3=O)S[C@H]12)c1csc(N)n1)C(=O)O` [Example 68, (3R,5R,6R)-6-((Z)-2-(2-aminothiazol-4-yl)-2-(((2-carboxypropan-2-yl)oxy)imino)acetamido)-3-(3-(2-((2-(2-chloro-3,4-dihydroxybenzamido)ethyl)amino)-2-oxoacetamido)-2-oxoimidazolidin-1-yl)-7-oxo-4-thia-1-azabicyclo[3.2.0]heptane-3-carboxylate] came in with an MIC, Pseudomonas aeruginosa S-3779 of 2 µg/mL (≈ 2.42 µM). Besides, the MIC, Klebsiella pneumoniae Y-1007 in experiment [2] was less than 0.06 µg/mL. Besides, the MIC, Pseudomonas aeruginosa S3759 in [3] was found to be 4 µg/mL (≈ 4.84 µM). In experiment [4], this molecule displayed an MIC, Pseudomonas aeruginosa S-2838 of 1 µg/mL (≈ 1.21 µM). In addition, the MIC, Klebsiella pneumoniae Y-995 in experiment [5] was found to be 0.5 µg/mL (≈ 0.604 µM). For the same molecule, the MIC, Pseudomonas aeruginosa ATCC 27853 in experiment [6] stood at 1 µg/mL (≈ 1.21 µM). The molecule further registered an MIC, Klebsiella pneumoniae Y-1062 in experiment [7] of 1 µg/mL (≈ 1.21 µM). The same molecule showed an MIC, Escherichia coli TK-1747 in experiment [8] of 1 µg/mL (≈ 1.21 µM). In addition, the MIC, Pseudomonas aeruginosa S-3028 in experiment [9] was 0.25 µg/mL (≈ 0.302 µM).
